Laboratory results from US20220308062A1, “METHODS FOR PREDICTING DRUG RESPONSIVENESS IN SAMPLES FROM CANCER SUBJECTS” (Board of Regents, The University of Texas System, priority 2019, published 2022).
“Also recorded” adds a separate entry of the source.

How the values were obtained:
[1] = system: H2009 cells; test: Proliferation assay (IncuCyte ZOOM), H2009; assay type: cell-based; settings: Homo sapiens, NCI-H2009; read-out: IC50 from proliferation curves
Protocol: (§1) Analysis was performed using IncuCyte ZOOM (Essen BioScience) with images acquired every 3 hr for up to 72 hr. Four images (proliferation) and one image (wound healing) were captured per well for each time point. Data were normalized to controls, and values for 50% effective concentration were calculated using Prism V7.0 (GraphPad software, San Diego, Calif.).
In vitro phenotypic assay. […] Proliferation and migration curves were generated using IncuCyte ZOOM (Essen BioScience) with images acquired every 3 hr over a 72 hr timeframe. Images were captured per well for each time point. Data were normalized to controls, and values for 50% inhibitory concentration were calculated using Prism V8.0 (GraphPad software).

[2] = system: H226 cells; test: Proliferation assay (IncuCyte ZOOM), H226; assay type: cell-based; settings: Homo sapiens, NCI-H226; H226 squamous cell cancer line; read-out: IC50 from proliferation curves
Protocol: as §1

[3] = system: A549 mouse xenograft; test: Xenograft study of TP-0903 treatment; assay type: in vivo; settings: oral 120 mg/kg twice weekly or 80 mg/kg daily
Protocol: (§2) Xenograft study of TP-0903 treatment. Mouse xenografts were implanted subcutaneously in the hind flank of the athymic nude mice. Tumor volumes were allowed to grow to a medium size (approximately 100 mm^3) before stratification and initiation of dosing. General health, tumor volumes, and bodyweights were followed over the course of the study.
as §2, with “grown” for “allowed to grow”, “(˜100” for “(approximately 100”, “dose initiation.” for “initiation of dosing.”

[4] = system: patient-derived organoids (PDOs); test: Patient-derived organoid CellTiter-Glo cell viability; assay type: cell-based, human
Protocol: Patient-derived organoids (PDOs). Tumor tissues were minced on ice into 1 mm^3 small pieces. Tumor pieces (˜20 μl in volume) were resuspended in 200 μl Matrigel and seeded into 24 well plates for 15 min until gel solidify, followed by culture in advanced DMEM/F12 medium supplemented with B27 and N2 (Thermo Fisher Scientific), 0.01% BSA (Roche), 100 units/m penicillin-streptomycin (Thermo Fisher Scientific), and others (Table 4) for 4-8 weeks to grow organoids. […] The CellTiter-Glo Luminescent Cell Viability assay was used to determine drug responsiveness.

[5] = system: A549 lung cancer cells; test: Luminex multi-cytokine assay; assay type: cell-based, human; settings: A549, 40 nmol/L, 24, 48, 72 hr
Protocol: Luminex multi-cytokine assay. […] Condition medium was harvested in 24, 48 and 72 hr after incubation. Condition medium was then subjected to a cytokine assay by using MILLIPLEX® MAP Human Cytokine Panel 1 (38 Plex) (Millipore, HCYTA-60K-PXBK38) in Luminex™ FLEXMAP 3D™ Instrument System.

[6] = system: PMA-stimulated U937 macrophages cocultured with A549 or H2009; test: U937 coculture with lung cancer cells, CyTOF; assay type: cell-based, human
Text: Materials and methods. U937 coculture with lung cancer cells. […] The cells were harvested and fixed to process CyTOF staining. Antibodies were conjugated in-house according to the manufacturer's instructions or purchased in pre-conjugated forms from the supplier (Fluidigm). Single cells from cell lines were harvested and stained with cisplatin and metal-conjugated surface antibodies sequentially for viability and surface staining. After fixation and permeabilization, cells were stained with metal-conjugated antibodies. The cells were then labeled with an iridium-containing DNA intercalator (191Ir+ or 193Ir+) for identification of cell events before analysis on a Helios mass cytometer. Signals were bead-normalized using EQ Four Element Calibration Beads.
Signals of samples were normalized using CyTOF software (Version 6.7.1014, Fluidigm). The generated files underwent signal cleanup and filtering for single cells using Cytobank (https://www.cytobank.org/). Macrophage population was gated out based on CD45 expression to generate Flow Cytometry Standard (FCS) file. The gated FCS file were downloaded for further analysis using Cytofkit. The PhenoGraph clustering algorithm in Cytofkit was implemented in R from the Bioconductor website (https://bioconductor.org/packages/cytofkit/). CyTOF data of macrophage were clustered and visualized using t-distributed stochastic neighbor embedding (t-SNE) algorithm based on normalized expression levels (Z-score) of 4 markers (CD14, CD16, CD163 and CD86).

IC50 [1]: 35.5 nM
IC50 [2]: 12.9 nM
SMILES: CN1CCN(Cc2ccc(Nc3ncc(Cl)c(Nc4ccccc4S(=O)(=O)N(C)C)n3)cc2)CC1 [TP-0903]
effect on body weight [3]: without any adverse effects
tumor size / growth ([3]; 21 days): substantial tumor size regression; also recorded: Growth inhibition was confirmed
PDO sensitivity ([4]; PDOs from tumors with high AXL and JAK1): sensitive
PDO response (cell viability) ([4]; PDOs of Pt 008 and 010 (Category I/II), TP-0903 20 nmol/L or ruxolitinib 15 μmol/L, 72 hr): did not respond robustly
IL-8, VEGF, and IL-11 secretion [5]: decreased
high CD163 subpopulations ([6]; 20, 40 and 80 nmol/L, increasing concentration): decreased
CD14high/CD16+/CD163high/CD86high macrophage subtype proportion ([6]; 72 hr coculture): decreased
SMAD2 in CD14high/CD16+/CD163high/CD86high subtype ([6]; 72 hr coculture): down-regulated
